Measurements reported in patent US11155841B2, “Method for producing sphingoid base or sphingolipid” (AJINOMOTO CO., INC., priority 2015, dated 2021).

Assay: Phytosphingosine solubility with various cyclodextrins in aqueous solution
Format: physicochemical
Conditions: aqueous 2-hydroxypropyl-α-cyclodextrin solution, aqueous with cosolvent or surfactant or cyclodextrin, thermodynamic from solid; excess of pure phytosphingosine (20 g/l) incubated with 2-hydroxypropyl-α-cyclodextrin solution; quantified by LC-MS; read-out: Solubilized phytosphingosine in the supernatants
Experimental: Phytosphingosine amounts (mg/l) measured in supernatants after incubation of an excess of pure phytosphingosine (20 g/l) with each of the three types of cyclodextrin at various concentrations.
These experiments were conducted to determine if and to what extent cyclodextrins solubilized sphingoid bases. To that end, an excess of phytosphingosine was incubated with increasing concentrations of solutions of three different types of cyclodextrin species—α-cyclodextrin, 2-hydroxypropyl-α-cyclodextrin, 2-hydroxypropyl-β-cyclodextrin. Solubilized phytosphingosine in the supernatants were quantified by liquid chromatography-mass spectrometry (LC-MS) using standards prepared in the same cyclodextrin solutions.

SMILES: CCCCCCCCCCCCCC[C@@H](O)[C@@H](O)[C@@H](N)CO [phytosphingosine]
- solubility: > 9000 µg/mL
